Results as given in US8642341B2, “Materials and methods for gene mediated therapy of psychiatric disorders” (Cornell University, priority 2007, dated 2014).

How the values were obtained:
mice [1] = test: mouse tail suspension test (TST); type: in vivo; settings: mice injected with control vector or no virus
Description: (§1) Two mouse groups (n=10) received bilateral nucleus accumbens injections of AAV-p11-siRNA or control vector. The mouse groups are referenced herein as the “knockdown group” or “control” respectively. Behavioral testing began 6 weeks later, when expression from AAV vectors usually peaks. Behavioral testing included mouse tail suspension test (TST), open filed test, and forced swim test (FST).
(§2) Knockdown and control groups of mice were transfected with AAV-p11-siRNA or control AAV vector, as described in Example 1. An additional control group was not transfected with any virus. The mice were subsequently treated with the antidepressant imipramine.
(§3) The AAV plasmid shown in FIGS. 2 and 3 was used to generate a virus vector, which expresses the p11 gene product and which has the same AAV2 backbone described in Example 1. The resulting virus vector (“AAV-p11,” which is SEQ ID NO: 3) was injected into the nucleus accumbens of normal adult mice.
(§4) Three groups of p11 knockdown mice (as in Example 1) were transfected with no virus, control virus vector, and the AAV-p11 virus vector of Example 3, respectively. Each knockdown transfectant group was compared to a wild-type counterpart group, which was also transfected with no virus, control virus vector, or AAV-p11. All virus transfections involved bilateral injection to the nucleus accumbens.

mice [2] = test: forced swim test (FST); type: in vivo, mouse; settings: mice injected with control vector or no virus
Description: as §1, §2, §3, §4

## CN(C)CCCN1c2ccccc2CCc2ccccc21 [imipramine]
Mice [1]
  immobility on the TST after imipramine: decreased immobility
Mice [2]
  immobility on the FST after imipramine: decreased immobility
